# Test results as given in publication PMC7002129, “The structure of Photosystem I acclimated to far-red light illuminates an ecologically important acclimation process in photosynthesis” (Science Advances, 2020).
# Key:
# [1] = target: T1, FRL-PSI (far-red light-acclimated Photosystem I trimer) (Fischerella thermalis, UniProt G6FME9+G6FMF0); assay: cryo-EM structure ([…] Å); reversed-phase HPLC of extracted pigments; type: binding; settings: presence shown by HPLC
# T1 construct: gene psaA; native trimer from FRL-grown cells, DM-solubilised, sucrose gradients; 36 subunits (12 per monomer), ~1 MDa; with Photosystem I reaction center subunit II; Photosystem I reaction center subunit IV; Photosystem I reaction center subunit VIII; Photosystem I reaction center subunit XII; Photosystem I 4.8K protein
# [2] = target: T1, FRL-PSI (far-red light-acclimated Photosystem I trimer); assay: reversed-phase HPLC of extracted pigments; type: binding; settings: native complex; site not assigned (modelled as beta-carotene)
# [3] = target: Far-red light-acclimated Photosystem I (FRL-PSI) monomer from Fischerella thermalis PCC 7521 (Fischerella thermalis PCC 7521) (UniProt G6FW50); assay: cryo-EM structure; single-particle cryo-EM of trimeric FRL-PSI isolated from FRL-grown F. thermalis; plunge-frozen in 300 mM tricine pH 8.0, 50 mM NaCl; 178,666 particles, C3 symmetry, global resolution 3.19 Å
compound,measurement,setting,value
C=Cc1c(C=O)c2[n]3c1=CC1=NC(=Cc4c(C)c5c([n]4[Mg]3)C(=C3N=C(C=2)C(C)C3CCC(=O)OCC=C(C)CCCC(C)CCCC(C)CCCC(C)C)C(C(=O)OC)C5=O)C(CC)=C1C (stereo not shown) [Chl f],cryo-EM structure (3.19 Å); reversed-phase HPLC of extracted pigments,"[1]; sites A20, A21, B30, B37 modelled as Chl f, assigned indirectly from environment","sites of Chl A20, Chl A21, Chl B30, and Chl B37, accounting for four"
CC1=C(/C=C/C(C)=C/C=C/C(C)=C/C=C/C=C(C)/C=C/C=C(C)/C=C/C2=C(C)C(=O)CCC2(C)C)C(C)(C)CCC1 [echinenone],reversed-phase HPLC of extracted pigments,[2],both complexes contain a mixture of β-carotene and echinenone
CC1=C(/C=C/C(C)=C/C=C/C(C)=C/C=C/C=C(C)/C=C/C=C(C)/C=C/C2=C(C)CCCC2(C)C)C(C)(C)CCC1 [β-carotene],cryo-EM structure (3.19 Å); reversed-phase HPLC of extracted pigments,[1]; not distinguishable from echinenone in the map,all carotenoids are modeled as β-carotene (BCR)
Far-red light-acclimated Photosystem I (FRL-PSI) monomer from Fischerella thermalis PCC 7521 (from UniProt G6FW50 1-81; G6FQU3 1-72) (complex),stoichiometry N,[3],3
